The text below walks through data of publication PMC5421785, “Citrullination only infrequently impacts peptide binding to HLA class II MHC” (PLoS ONE, 2017).

The target of one assay is T1, HLA-DRB1*04:01 (Homo sapiens, UniProt P01903+P01911, A100K/A169T/F76Y/I96L/K127E/L162R/M171V/N62H/P40V/Q125Y/R42H/S133A/S149N/S66Y/V115G/V209L/W38E).
T1 construct: EBV transformed homozygous cell lines were used as sources of MHC molecules; endogenous in cells; host or cells: EBV transformed homozygous cell lines
Nature of the assay: HLA class II peptide binding, inhibition of radiolabeled peptide binding to purified MHC. Particulars: for DRB1*04:01 binding capacity, WT/cit ratio: ratio of WT IC50 to Cit IC50.

Another assay deals with T2, HLA-DRB1*01:01 (Homo sapiens, UniProt P01903+P01911, A100R/D57E/F55L/F60I/F76Y/I96L/L162R/M171V/P40L/Q125E/R42F/V115G/Y59C).
T2 construct: EBV transformed homozygous cell lines were used as sources of MHC molecules; endogenous in cells; host or cells: EBV transformed homozygous cell lines
Described as above. Particulars: for DRB1*01:01 binding capacity, WT/cit ratio: ratio of WT IC50 to Cit IC50.

Where [1] appears, read: citrullinated 15-mer peptide (X = citrulline), purified HLA-DRB1*04:01, read-out: DRB1*04:01 binding capacity, Cit peptide (IC50 nM).
Where [2] appears, read: citrullinated 15-mer peptide (X = citrulline), purified HLA-DRB1*01:01, read-out: DRB1*01:01 binding capacity, Cit peptide (IC50 nM).
Setting [3] is: citrullinated 15-mer (X), purified MHC, inhibition of radiolabeled peptide binding, dash = IC50 >40,000 nM, read-out: DRB1*04:01 binding capacity, Cit peptide (IC50 nM).
[4] abbreviates: citrullinated 15-mer (X), purified MHC, inhibition of radiolabeled peptide binding, dash = IC50 >40,000 nM, read-out: DRB1*01:01 binding capacity, Cit peptide (IC50 nM).
The mark [5] stands for this setting: >1 = citrullination increases binding.

Read-outs that look alike come from different tables or passages of the source. Square brackets hold non-standard residues; d marks the D form. Ends that are not written are not given here. Peptide text beside a SMILES is read from it. Cit = NC(=O)NCCC[C@H](N)C(=O)O Where only a bound is given, the exact number is not on record here.

As a reminder, the IC50 is the concentration needed to halve the response being measured. In the case of `CC[C@H](C)[C@H](NC(=O)[C@H](CO)NC(=O)[C@H](CCC(=O)O)NC(=O)[C@@H](NC(=O)[C@H](CCC(N)=O)NC(=O)[C@H](CC(N)=O)NC(=O)[C@H](CC(N)=O)NC(=O)[C@H](CC(C)C)NC(=O)[C@H](CO)NC(=O)[C@H](CCCCN)NC(=O)[C@H](CC(C)C)NC(=O)[C@@H](NC(=O)[C@H](C)NC(=O)[C@@H](N)CC(=O)O)[C@@H](C)O)[C@@H](C)CC)C(=O)N[C@@H](CCCNC(N)=O)C(=O)O` [DATLKSLNNQIESIX] (H-DATLKSLNNQIESI[Cit]-OH), the IC50 came out at 1390 nM at HLA-DRB1*04:01 (citrullinated peptide as listed (X at Cit position), read-out: DRB1*04:01 binding capacity Cit peptide (IC50 nM)) and 9.4 nM at HLA-DRB1*01:01 (citrullinated peptide as listed (X at Cit position), read-out: DRB1*01:01 binding capacity Cit peptide (IC50 nM)).

As to `CC(C)C[C@H](NC(=O)CNC(=O)[C@H](CCCNC(N)=O)NC(=O)[C@H](CCC(=O)O)NC(=O)CNC(=O)[C@@H]1CCCN1C(=O)[C@H](CCC(=O)O)NC(=O)CNC(=O)[C@H](C)N)C(=O)N[C@@H](CCCCN)C(=O)NCC(=O)N[C@@H](Cc1c[nH]cn1)C(=O)N[C@@H](CCCNC(=N)N)C(=O)NCC(=O)N[C@@H](Cc1ccccc1)C(=O)O` [AGEPGEXGLKGHRGF] (H-AGEPGE[Cit]GLKGHRGF-OH), the IC50 at HLA-DRB1*04:01 (setting [1]) was over 40000 nM; at HLA-DRB1*01:01 (setting [2]) it was 783 nM.

Regarding `CC(C)C[C@H](NC(=O)[C@H](CO)NC(=O)[C@H](C)NC(=O)[C@H](CC(N)=O)NC(=O)[C@H](CC(=O)O)NC(=O)[C@@H](NC(=O)[C@H](CC(=O)O)NC(=O)[C@H](CCC(N)=O)NC(=O)[C@H](CCCNC(N)=O)NC(=O)[C@H](Cc1ccccc1)NC(=O)[C@H](CO)NC(=O)[C@H](CCC(N)=O)NC(=O)[C@H](CC(C)C)NC(=O)[C@@H](NC(=O)[C@@H](N)CC(N)=O)[C@@H](C)O)C(C)C)C(=O)O` [NTLQSFXQDVDNASL] (H-NTLQSF[Cit]QDVDNASL-OH), the values for the IC50 at HLA-DRB1*04:01 (setting [3]) and on HLA-DRB1*01:01 (setting [4]) were 702 nM and 2000 nM, respectively.

On to `CC(C)C[C@H](NC(=O)[C@H](C)NC(=O)[C@H](CC(=O)O)NC(=O)[C@H](CC(N)=O)NC(=O)[C@H](CC(N)=O)NC(=O)[C@H](CCCNC(=N)N)NC(=O)[C@H](CC(N)=O)NC(=O)[C@H](C)NC(=O)[C@H](C)NC(=O)[C@H](CCC(=O)O)NC(=O)[C@H](CO)NC(=O)[C@H](CC(C)C)NC(=O)[C@H](CC(=O)O)NC(=O)[C@H](C)N)C(=O)N[C@@H](CCCNC(N)=O)C(=O)O` [ADLSEAANRNNDALX] (H-ADLSEAANRNNDAL[Cit]-OH), for which the IC50 on HLA-DRB1*04:01 (setting [3]) came out at 23300 nM; at HLA-DRB1*01:01 (setting [4]), 6180 nM.

`CC(C)C[C@H](NC(=O)[C@H](CO)NC(=O)[C@H](Cc1ccc(O)cc1)NC(=O)[C@@H](NC(=O)[C@H](CCCNC(=N)N)NC(=O)[C@@H](NC(=O)[C@H](CO)NC(=O)[C@@H](NC(=O)[C@@H](NC(=O)[C@@H](NC(=O)[C@H](Cc1ccc(O)cc1)NC(=O)[C@H](CO)NC(=O)[C@H](CCCNC(N)=O)NC(=O)[C@H](CO)NC(=O)[C@@H](N)CO)C(C)C)[C@@H](C)O)[C@@H](C)O)[C@@H](C)O)[C@@H](C)O)C(=O)O` [SSXSYVTTSTRTYSL] (H-SS[Cit]SYVTTSTRTYSL-OH): the values for the IC50 on HLA-DRB1*04:01 (setting [3]) and on HLA-DRB1*01:01 (setting [4]) were 357 nM and 93 nM, respectively.

As to `CSCC[C@H](NC(=O)[C@H](CCC(=O)O)NC(=O)[C@H](CCC(=O)O)NC(=O)[C@H](CCC(=O)O)NC(=O)[C@H](Cc1ccc(O)cc1)NC(=O)[C@H](CC(C)C)NC(=O)[C@H](CC(=O)O)NC(=O)CNC(=O)[C@H](CC(C)C)NC(=O)[C@H](CCCNC(=N)N)NC(=O)[C@H](CO)NC(=O)[C@H](CCCCN)NC(=O)CNC(=O)[C@@H](N)CCC(N)=O)C(=O)N[C@@H](CCCNC(N)=O)C(=O)O` [QGKSRLGDLYEEEMX] (H-QGKSRLGDLYEEEM[Cit]-OH; N-terminus and C-terminus assumed), the IC50 at HLA-DRB1*04:01 (setting [3]) and on HLA-DRB1*01:01 (setting [4]) was over 40000 nM each time. On HLA-DRB1*04:01, the “DRB1*04:01 binding capacity, WT/cit ratio” value is recorded as 1.0. The “DRB1*01:01 binding capacity, WT/cit ratio” value on HLA-DRB1*01:01 is on record as 0.7.

As to `CC(C)[C@H](NC(=O)[C@H](CC(=O)O)NC(=O)[C@H](CCCCN)NC(=O)[C@H](CC(=O)O)NC(=O)[C@H](CC(N)=O)NC(=O)[C@H](Cc1ccc(O)cc1)NC(=O)[C@H](CCCNC(N)=O)NC(=O)[C@H](CCC(N)=O)NC(=O)CNC(=O)[C@H](CC(=O)O)NC(=O)[C@@H](N)CCC(N)=O)C(=O)N[C@@H](Cc1c[nH]c2ccccc12)C(=O)N[C@@H](CCCCN)C(=O)N1CCC[C@H]1C(=O)N[C@@H](CCC(=O)O)C(=O)O` [QDGQXYNDKDVWKPE] (H-QDGQ[Cit]YNDKDVWKPE-OH; N-terminus and C-terminus assumed), the IC50 on HLA-DRB1*04:01 (setting [1]) and at HLA-DRB1*01:01 (setting [2]) was over 40000 nM each time. Besides, at HLA-DRB1*04:01 (setting [5]), the “DRB1*04:01 binding capacity, WT/cit ratio” value turned out to be 1.0. Further, the “DRB1*01:01 binding capacity, WT/cit ratio” value at HLA-DRB1*01:01 (setting [5]) stood at 1.0.

With `CSCC[C@H](NC(=O)[C@H](CCCNC(=N)N)NC(=O)[C@H](CCCNC(=N)N)NC(=O)[C@H](Cc1ccc(O)cc1)NC(=O)[C@H](CO)NC(=O)[C@H](CO)NC(=O)[C@H](CO)NC(=O)[C@H](CO)NC(=O)[C@@H](NC(=O)[C@H](CO)NC(=O)[C@H](CCCNC(N)=O)NC(=O)[C@@H](NC(=O)[C@H](CO)NC(=O)[C@@H](N)CCSC)[C@@H](C)O)C(C)C)C(=O)N[C@@H](Cc1ccccc1)C(=O)O` [MSTXSVSSSSYRRMF] (H-MST[Cit]SVSSSSYRRMF-OH), the IC50 at HLA-DRB1*04:01 (setting [3]) came out at 1080 nM; on HLA-DRB1*01:01 (setting [4]), 573 nM.

In the case of DIMRLREKLQEEMLQ [Vimentin 181 WT], the 50% inhibitory concentration (IC50) on HLA-DRB1*04:01 (read-out: DRB1*04:01 binding capacity, WT peptide (IC50 nM)) was over 40000 nM; on HLA-DRB1*01:01 (read-out: DRB1*01:01 binding capacity, WT peptide (IC50 nM)), 852 nM.
